Laboratory results published in patent US20060025474A1, “Bisphenyl compounds useful as vitamin D3 receptor agonists” (priority 2004, published 2006).

System: ECAC2 mRNA in Caco-2 cells
Assay type: cell-based
Experimental: The mRNA Expression Assay of ECAC2 in Caco-2 Cells
The dispersed cells were plated in 48-well plate at a concentration of 6.3×10^4 cells/well and incubated for 4 days at 37° C. The culture medium (Dulbecco's Modified Eagle Medium (D-MEM) without NaHCO3 with 44 mM NaHCO3, 1 mM non-essential amino acids, and 2 mM L-glutamine, 90%; fetal bovine serum, 10%) was then replaced with the same medium containing various concentrations of LG190178 (the compound disclosed in WO00/10958 and the corresponding U.S. Pat. No. 6,218,430 B1) or the compounds of the present invention, and cells were cultured for 1 day at 37° C. The culture medium containing the compounds was changed twice per day.
Total RNA Isolation from Caco-2 Cell
Total RNA was isolated from Caco-2 cell following ABI PRISM™ 6100 Nucleic Acid PrepStation protocol from Applied Biosystems.
Real Time RT-PCR Assay of ECAC2
ECAC2 mRNA expression was determined using TaqMan One-step RT-PCR Master Mix Reagents Kit and PRISM7000 systems from Applied Biosystems.
Primer information and cycle conditions are 1)ECAC2, forward 5′-[…]-3′, reverse 5′-GTCCTCTGTCTGGMGATGA-3′, Taqman probe 5′-[…]-3′, 55 cycles, annealing temperature (Ta)=60° C.; 2)GAPDH, forward 5′-GMGGTGMGGTCGGAGTC-3′, reverse 5′-GMGATGGTGATGGGATTTC-3′, Taqman probe 5′-[…]-3′, 55 cycles, Ta=60° C. ECAC2 mRNA values were normalized for the expression of GAPDH mRNA within each sample.
Comparison of ECAC2 mRNA Value
The EC50 values of ECAC2 mRNA values were analyzed by Emax models. The ECAC2 mRNA ratio was calculated as the ratio of the EC50 value of the compounds to that of LG190178. ECAC2 is a channel-like transporter mediating intestinal calcium absorption. It is described in J Biol Chem. Aug. 6, 1999; 274(32):22739-46 for example.

ECaC-2 mRNA induction activity in Caco-2 cells | SMILES
22% | CCC(O)(/C=C/c1ccc(C(CC)(CC)c2ccc(OC[C@H]3CCCC(=O)O3)c(C)c2)cc1C)CC [Example 190, 6(R)-(4-{1-Ethyl-1-[4-((E)-3-ethyl-3-hydroxy-pent-1-enyl)-3-methyl-phenyl]-propyl}-2-methyl-phenoxymethyl)-tetrahydro-pyran-2-one]
823% | CCC(CC)(c1ccc(/C=C/C(O)(C(F)(F)F)C(F)(F)F)c(C)c1)c1ccc(CCC(=O)O)c(C)c1 [Example 107, 3-(4-{1-ethyl-1-[3-methyl-4-((E)-4,4,4-trifluoro-3-hydroxy-3-trifluoromethyl-but-1-enyl)-phenyl]-propyl}-2-methyl-phenyl)-propionic acid]
410% | CCC(CC)(c1ccc(/C=C/C(O)(C(F)(F)F)C(F)(F)F)c(C)c1)c1ccc(OC[C@H](O)CCCC(=O)O)c(C)c1 [Example 62, (R)-6-(4-{1-Ethyl-1-[3-methyl-4-((E)-4,4,4-trifluoro-3-hydroxy-3-trifluoromethyl-but-1-enyl)-phenyl]-propyl}-2-methyl-phenoxy)-5-hydroxy-hexanoic acid]
117% | CCC(CC)(c1ccc(C#CC(O)(C(F)(F)F)C(F)(F)F)c(C)c1)c1ccc(OC[C@H]2CCCC(=O)O2)c(C)c1 [Example 59, (R)-6-(4-{1-Ethyl-1-[3-methyl4-(4,4,4-trifluoro-3-hydroxy-3-trifluoromethyl-but-1-ynyl)-phenyl]-propyl}-2-methyl-phenoxymethyl)-tetrahydro-pyran-2-one]
276% | CCC(CC)(c1ccc(/C=C/C(O)(C(F)(F)F)C(F)(F)F)c(C)c1)c1ccc(OC[C@@H](O)CCCC(=O)O)c(C)c1 [Example 56, (S)-6-(4-{1-Ethyl-1-[3-methyl-4-((E)4,4,4-trifluoro-3-hydroxy-3-trifluoromethyl-but-1-enyl)-phenyl]-propyl}-2-methyl-phenoxy)-5-hydroxy-hexanoic acid]
292% | CCC(CC)(c1ccc(C#CCCCC(=O)O)c(C)c1)c1ccc(C#CC(O)(C(F)(F)F)C(F)(F)F)c(C)c1 [Example 192, 6-(4-{1-Ethyl-1-[3-methyl-4-(4,4,4-trifluoro-3-hydroxy-3-trifluoromethyl-but-1-ynyl)-phenyl]-propyl}-2-methyl-phenyl)-hex-5-ynoic acid]
123% | CCc1cc(C(CC)(CC)c2ccc(C(=O)N[C@H](C)C(=O)O)s2)ccc1OCC(C)(O)C(C)(C)C (single isomer, unassigned) [Compound A, reference compound]
86% | CCC(O)(/C=C/c1ccc(C(CC)(CC)c2cc(C)c(OC[C@@H]3CCC(=O)O3)c(C)c2)cc1C)CC [Example 166, (S)-5-(4-{1-Ethyl-1-[4-((E)-3-ethyl-3-hydroxy-pent-1-enyl)-3-methyl-phenyl]-propyl}-2,6-dimethyl-phenoxymethyl)-dihydro-furan-2-one]
538% | CCC(CC)(c1ccc(/C=C/C2(O)CCCC2)c(C)c1)c1ccc(OC[C@@H](O)CCC(=O)O)c(C)c1 [Example 35, (S)-5-[4-(1-ethyl-1-{4-[(E)-2-(1-hydroxy-cyclopentyl)-vinyl]-3-methyl-phenyl}-propyl)-2-methyl-phenoxy]-4-hydroxy-pentanoic acid]
1227% | CCC(CC)(c1ccc(/C=C/C(O)(C(F)(F)F)C(F)(F)F)c(C)c1)c1ccc(OC[C@@H](O)CC(=O)O)c(C)c1 [Example 52, (S)4-(4-{1-ethyl-1-[3-methyl-4-((E)A4,4,4-trifluoro-3-hydroxy-3-trifluoromethyl-but-1-enyl)-phenyl]-propyl}-2-methyl-phenoxy)-3-hydroxy-butyric acid]
75% | CCC(CC)(c1ccc(/C=C/C2(O)CCCC2)c(C)c1)c1ccc(OCCCCCN)c(C)c1 [Example 121, 1-[(E)-2-(4-{1-[4-(5-Amino-pentyloxy)-3-methyl-phenyl]-1-ethyl-propyl}-2-methyl-phenyl)-vinyl]-cyclopentanol]
100% | CCC(CC)(c1ccc(OCC(O)CO)c(C)c1)c1ccc(OCC(O)C(C)(C)C)c(C)c1 (stereo not drawn) [LG190178, reference compound]
534% | CCC(CC)(c1ccc(C#CC(O)(C(F)(F)F)C(F)(F)F)c(C)c1)c1ccc(OCC(CO)CO)c(C)c1 [Example 77, 2-(4-{1-ethyl-1-[3-methyl-4-(4,4,4-trifluoro-3-hydroxy-3-trifluoromethyl-but-1-ynyl)-phenyl]-propyl}-2-methyl-phenoxymethyl)-propane-1,3-diol]
90% | CCC(O)(/C=C/c1ccc(C(CC)(CC)c2ccc(OC[C@@H](O)CO)c(C)c2)cc1C)CC [Example 64, (S)-3-(4-{1-ethyl-1-[4-((E)-3-ethyl-3-hydroxy-pent-1-enyl)-3-methyl-phenyl]-propyl}-2-methyl-phenoxy)-propane-1,2-diol]
15% | CCc1cc(C(CC)(CC)c2ccc(C(=O)N[C@H](C)C(=O)O)s2)ccc1OCC(C)(O)C(C)(C)C (single isomer, unassigned) [Compound B, reference compound]
<10% | CCC(CC)(c1ccc(/C=C/C(O)(C(F)(F)F)C(F)(F)F)c(C)c1)c1ccc(OCCCCCN)c(C)c1 [Example 125, (E)4-(4-{1-[4-(5-Amino-pentyloxy)-3-methyl-phenyl]-1-ethyl-propyl}-2-methyl-phenyl)-1,1,1-trifluoro-2-trifluoromethyl-but-3-en-2-ol]
518% | CCC(CC)(c1ccc(CCC(O)C(C)(C)C)c(C)c1)c1ccc(OCCCCC(=O)O)c(C)c1 (stereo not drawn) [Example 80, 5-(4-{1-ethyl-1-[4-(3-hydroxy-4,4-dimethyl-pentyl)-3-methyl-phenyl]-propyl}-2-methyl-phenoxy)-pentanoic acid]
235% | CCC(CC)(c1ccc(C#CC(O)(C(F)(F)F)C(F)(F)F)c(C)c1)c1ccc(OC[C@H](O)CCCC(=O)O)c(C)c1 [Example 60, (R)-6-(4-{1-ethyl-1-[3-methyl4-(4,4,4-trifluoro-3-hydroxy-3-trifluoromethyl-but-1-ynyl)-phenyl]-propyl}-2-methyl-phenoxy)-5-hydroxy-hexanoic acid]
172% | CCC(CC)(c1ccc(/C=C/C(O)(C(F)(F)F)C(F)(F)F)c(C)c1)c1ccc(OC[C@H](O)CC(=O)O)c(C)c1 [Example 54, (R)-4-(4-{1-ethyl-1-[3-methyl4-((E)-4,4,4-trifluoro-3-hydroxy-3-trifluoromethyl-but-1-enyl)-phenyl]-propyl}-2-methyl-phenoxy)-3-hydroxy-butyric acid]
309% | CCC(CC)(c1ccc(/C=C/C(O)C(C)(C)C)c(C)c1)c1ccc(OCC(CO)CO)c(C)c1 (stereo not drawn) [Example 75, 2-(4-{1-ethyl-1-[4-((E)-3-hydroxy-4,4-dimethyl-pent-1-enyl)-3-methyl-phenyl]-propyl}-2-methyl-phenoxymethyl)-propane-1,3-diol]
24% | CCC(CC)(c1ccc(C#CC(O)(C(F)(F)F)C(F)(F)F)c(C)c1)c1ccc(OC[C@@H]2CCCC(=O)O2)c(C)c1 [Example 57, (S)-6-(4-{1-ethyl-1-[3-methyl4-(4,4,4-trifluoro-3-hydroxy-3-trifluoromethyl-but-1-ynyl)-phenyl]-propyl}-2-methyl-phenoxymethyl)-tetrahydro-pyran-2-one]
1843% | CCC(CC)(c1ccc(/C=C/C(O)(C(F)(F)F)C(F)(F)F)c(C)c1)c1ccc(OCCCCC(=O)O)c(C)c1 [Example 84, 5-(4-{1-ethyl-1-[3-methyl-4-((E)-4,4,4-trifluoro-3-hydroxy-3-trifluoromethyl-but-1-enyl)-phenyl]-propyl}-2-methyl-phenoxy)-pentanoic acid]
918% | CCC(CC)(c1ccc(/C=C/C(O)(C(F)(F)F)C(F)(F)F)c(C)c1)c1ccc(OC[C@H]2CCCC(=O)O2)c(C)c1 [Example 61, (R)-6-(4-{1-ethyl-1-[3-methyl4-((E)4,4,4-trifluoro-3-hydroxy-3-trifluoromethyl-but-1-enyl)-phenyl]-propyl}-2-methyl-phenoxymethyl)-tetrahydro-pyran-2-one]
586% | CCC(CC)(c1ccc(C#CC(O)(C(F)(F)F)C(F)(F)F)c(C)c1)c1ccc(OC[C@H](O)CCCO)c(C)c1 [Example 152, (R)-5-(4-{1-Ethyl-1-[3-methyl-4-(4,4,4-trifluoro-3-hydroxy-3-trifluoromethyl-but-1-ynyl)-phenyl]-propyl}-2-methyl-phenoxy)-pentane-1,4-diol]
